According to patent US9090583B2, “Benzopyrone estrogen receptor regulator” (BEIJING SHENOGEN PHARMA GROUP LTD., priority 2010, dated 2015):
Read-outs that look alike come from different tables or passages of the source.

Assays:
MDA-MB-231 cells = experiment: CellTiter-Glo Luminescent Cell Viability Assay on ER-negative breast cancer MDA-MB-231 cells; format: cell-based; conditions: average ± standard deviation when tested more than 3 times, read-out: Inhibition of the viability of breast cancer cells, IC50
Description: A: In Vitro CellTiter-Glo® Luminescent Cell Viability Assay on ER-Negative Breast Cancer MDA-MB-231 Cells:
MDA-MB-231 cells were maintained at 37° C., under 5% CO2 atmosphere in DMEM containing 10% fetal calf serum. The cells were seeded on 96-well plate at a density of 6×10^3 cells per well. MDA-MB-231 cells were treated with a test compound dissolved in DMSO at the concentrations of zero, 0.3 μM, 0.5 μM, 1 μM, 2 μM, 3 μM, 5 μM, 10 μM, 20 μM, 30 μM, 50 μM and 100 μM for 72 hours. Treated cells were examined by CellTiter-Glo® Luminescent Cell Viability Assay Kit (Promega), and luminescence values were recorded with Envision.

MCF7 cells = experiment: CellTiter-Glo Luminescent Cell Viability Assay on ER-positive breast cancer MCF-7 cells; format: cell-based, human; conditions: average ± standard deviation when tested more than 3 times, read-out: Inhibition of the viability of breast cancer cells, IC50
Description: B: In Vitro CellTiter-Glo® Luminescent Cell Viability Assay on ER-Positive Breast Cancer MCF-7 Cells:
MCF7 cells are breast cancer cell lines that highly express ER-66, ER-46 and ER-36. (Relevance of breast cancer cell lines as models for breast tumours: an update. Marc Lacroix, Guy Leclercq, Breast Cancer Research and Treatment (2004) 83, 249-289; Wang et al., Proc. Natl. Acad. Sci. U.S.A. 103:9063-9068 (2006)). MCF7 cells were obtained from ATCC and maintained in Dulbecco's Modified Eagles Medium (DMEM) and 10% fetal calf serum at 37° C., under 5% CO2 atmosphere. The cells were seeded on 96-well plate at a density of 6×10^3 cells per well. MCF7 cells were treated with a test compound dissolved in DMSO at the concentrations of zero, 0.3 μM, 0.5 μM, 1 μM, 2 μM, 3 μM, 5 μM, 10 μM, 20 μM, 30 μM, 50 μM and 100 μM for 72 hours. Treated cells were examined by CellTiter-Glo® Luminescent Cell Viability Assay Kit (Promega), and luminescence values were recorded with Envision.

| Structure (SMILES) | IC50 (MDA-MB-231 cells; 72 hours) | IC50 (MCF7 cells; 72 hours) | IC50 (MDA-MB-231 cells; Homo sapiens, MDA-MB-231, 72 h) | IC50 (MCF7 cells; Homo sapiens, MCF7, 72 h) |
| --- | --- | --- | --- | --- |
| COc1c(-c2cccs2)oc2c(CC=C(C)C)c(O)c(CC=C(C)C)c(O)c2c1=O [Compound 39, 2-(thiophen-2-yl)-5,7-dihydroxy-3-methoxy-6,8-di(3-methyl-2-buten-1-yl)-4H-benzopyran-4-one] | – | – | > 100 µM | 65.8 µM |
| COc1c(-c2ccco2)oc2c(CC=C(C)C)c(O)c(CC=C(C)C)c(O)c2c1=O [Compound 41, 2-(furan-2-yl)-5,7-dihydroxy-3-methoxy-6,8-di(3-methyl-2-buten-1-yl)-4H-benzopyran-4-one] | – | – | > 100 µM | 22.2 µM |
| COc1c(-c2cocn2)oc2c(CC=C(C)C)c(O)c(CC=C(C)C)c(O)c2c1=O [Compound 44, 2-(oxazol-4-yl)-5,7-dihydroxy-3-methoxy-6,8-di(3-methyl-2-buten-1-yl)-4H-benzopyran-4-one] | – | – | > 100 µM | > 100 µM |
| COc1c(-c2ccnn2C)oc2c(CC=C(C)C)c(O)c(CC=C(C)C)c(O)c2c1=O [Compound 45, 2-(1-methyl-1H-pyrazol-5-yl)-5,7-dihydroxy-3-methoxy-6,8-di(3-methyl-2-buten-1-yl)-4H-benzopyran-4-one] | > 100 µM | – | – | 31.1 µM |
| COc1c(-c2cnn(C)c2)oc2c(CC=C(C)C)c(O)c(CC=C(C)C)c(O)c2c1=O [Compound 46, 2-(1-methyl-1H-pyrazol-4-yl)-5,7-dihydroxy-3-methoxy-6,8-di(3-methyl-2-buten-1-yl)-4H-benzopyran-4-one] | – | – | > 100 µM | > 100 µM |
| COc1c(-c2nccn2C)oc2c(CC=C(C)C)c(O)c(CC=C(C)C)c(O)c2c1=O [Compound 47, 2-(1-methyl-1H-imidazol-2-yl)-5,7-dihydroxy-3-methoxy-6,8-di(3-methyl-2-buten-1-yl)-4H-benzopyran-4-one] | – | – | 43.5 µM | > 100 µM |
| COc1c(-c2ccc(Cl)cn2)oc2c(CC=C(C)C)c(O)c(CC=C(C)C)c(O)c2c1=O [Compound 53, 2-(5-chloropyridin-2-yl)-5,7-dihydroxy-3-methoxy-6,8-di(3-3-methyl-2-buten-1-yl)-4H-benzopyran-4-one] | 17 ± 4.97 µM | 19.5 ± 1.02 µM | – | – |
| COc1c(-c2ccc(F)nc2)oc2c(CC=C(C)C)c(O)c(CC=C(C)C)c(O)c2c1=O [Compound 54, 2-(6-fluoropyridin-3-yl)-5,7-dihydroxy-3-methoxy-6,8-di(3-3-methyl-2-buten-1-yl)-4H-benzopyran-4-one] | 10.3 ± 0.38 µM | 7.06 ± 3.16 µM | – | – |
| COc1c(-c2ccc(OC(F)(F)F)cc2)oc2c(CC=C(C)C)c(O)c(CC=C(C)C)c(O)c2c1=O [Compound 58, 2-(4-trifluoromethoxyphenyl)-5,7-dihydroxy-3-methoxy-6,8-di(3-methyl-2-buten-1-yl)-4H-benzopyran-4-one] | – | – | 3.63 µM | > 100 µM |
| COc1c(-c2ccc(N(C)C)cc2)oc2c(CC=C(C)C)c(O)c(CC=C(C)C)c(O)c2c1=O [Compound 59, 2-(4-dimethylaminophenyl)-5,7-dihydroxy-3-methoxy-6,8-di(3-methyl-2-buten-1-yl)-4H-benzopyran-4-one] | – | – | > 100 µM | 5.12 µM |
| COc1c(-c2ccc(C(C)O)cc2)oc2c(CC=C(C)C)c(O)c(CC=C(C)C)c(O)c2c1=O (stereo not shown) [Compound 67] | 3.27 µM | 4.66 µM | – | – |
| COc1c(CC=C(C)C)cc2c(=O)c(OC)c(-c3ccc(F)c(F)c3)oc2c1CC=C(C)C [Compound 81B, 2-(3,4-difluorophenyl)-3,7-dimethoxy-6,8-di(3-methyl-2-buten-1-yl)-4H-benzopyran-4-one] | – | – | > 100 µM | > 100 µM |
| COc1c(CC=C(C)C)c(O)c2c(=O)c(OC)c(-c3ccc(Cl)c(F)c3)oc2c1CC=C(C)C [Compound 82A, 2-(3-fluoro-4-chlorophenyl)-5-hydroxy-3,7-dimethoxy-6,8-di(3-methyl-2-buten-1-yl)-4H-benzopyran-4-one] | – | – | > 100 µM | > 100 µM |
| COc1c(CC=C(C)C)c(OC)c2c(=O)c(OC)c(-c3ccc(Cl)c(F)c3)oc2c1CC=C(C)C [Compound 82B, 2-(3-fluoro-4-chlorophenyl)-3,5,7-trimethoxy-6,8-di(3-methyl-2-buten-1-yl)-4H-benzopyran-4-one] | – | – | 26.3 µM | > 100 µM |

The remaining lines, values ahead:

| IC50 (MDA-MB-231 cells; 72 hours) | IC50 (MCF7 cells; 72 hours) | IC50 (MDA-MB-231 cells; Homo sapiens, MDA-MB-231, 72 h) | IC50 (MCF7 cells; Homo sapiens, MCF7, 72 h) | Structure (SMILES) |
| --- | --- | --- | --- | --- |
| > 100 µM | 22.9 µM | – | – | COc1c(C2CCOC2)oc2c(CC=C(C)C)c(O)c(CC=C(C)C)c(O)c2c1=O (stereo not shown) [Compound 38, 2-(terthydrofuran-3-yl)-5,7-dihydroxy-3-methoxy-6,8-di(3-methyl-2-buten-1-yl)-4H-benzopyran-4-one] |
| – | – | 24 µM | 23.5 µM | COc1c(-c2ccsc2)oc2c(CC=C(C)C)c(O)c(CC=C(C)C)c(O)c2c1=O [Compound 40, 2-(thiophen-3-yl)-5,7-dihydroxy-3-methoxy-6,8-di(3-methyl-2-buten-1-yl)-4H-benzopyran-4-one] |
| – | – | 28.7 µM | 12.4 µM | COc1c(-c2ccoc2)oc2c(CC=C(C)C)c(O)c(CC=C(C)C)c(O)c2c1=O [Compound 42, 2-(furan-3-yl)-5,7-dihydroxy-3-methoxy-6,8-di(3-methyl-2-buten-1-yl)-4H-benzopyran-4-one] |
| – | – | > 100 µM | 25.7 µM | COc1c(-c2cscn2)oc2c(CC=C(C)C)c(O)c(CC=C(C)C)c(O)c2c1=O [Compound 43, 2-(thiazol-4-yl)-5,7-dihydroxy-3-methoxy-6,8-di(3-methyl-2-buten-1-yl)-4H-benzopyran-4-one] |
| 25 µM | 37.2 µM | – | – | COc1c(-c2ccnn2C)oc2c(CC=C(C)C)c(O)c(CC=C(C)C)c(O)c2c1=O [Compound 48, 2-(1-methyl-1H-pyrazol-5-yl)-5,7-dihydroxy-3-methoxy-6,8-di(3-methyl-2-buten-1-yl)-4H-benzopyran-4-one] |
| – | – | 13.6 µM | 20.4 µM | COc1c(-c2cc3ccccc3o2)oc2c(CC=C(C)C)c(O)c(CC=C(C)C)c(O)c2c1=O [Compound 50, 2-(benzofuran-2-yl)-5,7-dihydroxy-3-methoxy-6,8-di(3-methyl-2-buten-1-yl)-4H-benzopyran-4-one] |
| – | – | > 100 µM | > 100 µM | COc1c(-c2ccnc(F)c2)oc2c(CC=C(C)C)c(O)c(CC=C(C)C)c(O)c2c1=O [Compound 51, 2-(2-fluoropyridin-4-yl)-5,7-dihydroxy-3-methoxy-6,8-di(3-methyl-2-buten-1-yl)-4H-benzopyran-4-one] |
| – | – | 8.34 ± 1.63 µM | 7.04 ± 1.43 µM | COc1c(-c2ccc(Cl)nc2)oc2c(CC=C(C)C)c(O)c(CC=C(C)C)c(O)c2c1=O [Compound 52, 2-(6-chloropyridin-3-yl)-5,7-dihydroxy-3-methoxy-6,8-di(3-methyl-2-buten-1-yl)-4H-benzopyran-4-one] |
| – | – | 5.51 ± 0.02 µM | 4.17 ± 2.45 µM | COc1c(-c2ccnc(Cl)c2)oc2c(CC=C(C)C)c(O)c(CC=C(C)C)c(O)c2c1=O [Compound 55, 2-(2-chloropyridin-4-yl)-5,7-dihydroxy-3-methoxy-6,8-di(3-methyl-2-buten-1-yl)-4H-benzopyran-4-one] |
| – | – | 5.96 µM | 29.2 µM | COc1c(-c2ccc(C(=O)O)cc2)oc2c(CC=C(C)C)c(O)c(CC=C(C)C)c(O)c2c1=O [Compound 56, 4-[5,7-dihydroxy-3-methoxy-6,8-di(3-methyl-2-butenyl)-4-oxo-4H-benzopyran-2-yl]benzoic acid] |
| – | – | 2.45 µM | 40.6 µM | COc1c(-c2ccc(S(C)(=O)=O)cc2)oc2c(CC=C(C)C)c(O)c(CC=C(C)C)c(O)c2c1=O [Compound 64, 2-(4-methanesulfonylphenyl)5,7-dihydroxy-3-methoxy-6,8-di(3-methyl-2-buten-1-yl)-4H-benzopyran-4-one] |
| – | – | > 100 µM | 10.2 µM | COc1c(-c2ccc(C(C)=O)cc2)oc2c(CC=C(C)C)c(O)c(CC=C(C)C)c(O)c2c1=O [Compound 65, 2-(4-acetylphenyl)-5,7-dihydroxy-3-methoxy-6,8-di(3-methyl-2-buten-1-yl)-4H-benzopyran-4-one] |
| 23.8 µM | 8.89 µM | – | – | COc1c(-c2cncs2)oc2c(CC=C(C)C)c(O)c(CC=C(C)C)c(O)c2c1=O [Compound 68, 2-(thiazol-5-yl)-5,7-dihydroxy-3-methoxy-6,8-di(3-methyl-2-buten-1-yl)-4H-benzopyran-4-one] |
| – | – | > 100 µM | > 100 µM | COc1c(CC=C(C)C)c(O)c2c(=O)c(OC)c(-c3ccc(F)c(F)c3)oc2c1CC=C(C)C [Compound 81A, 2-(3,4-difluorophenyl)-5-hydroxy-3,7-dimethoxy-6,8-di(3-methyl-2-buten-1-yl)-4H-benzopyran-4-one] |
| – | – | > 100 µM | > 100 µM | CC(C)=CCc1c(O)c(CC=C(C)C)c2oc(-c3ccc(F)c(F)c3)cc(=O)c2c1O [Compound 85, 2-(3,4-difluorophenyl)-5,7-dihydroxy-6,8-di(3-methyl-2-buten-1-yl)-4H-benzopyran-4-one] |
